# Key:
# NDM-1 = target: T1, NDM-1 (Klebsiella pneumoniae, UniProt C7C422); test: β-lactamase inhibition, imipenem hydrolysis; assay type: biochemical; conditions: imipenem substrate; read-out: β-Lactamases, IC50 NDM-1
# T1 construct: purchased RayBiotech, Inc. 230-00554
# Description: (§1) Recombinant AmpC from Escherichia coli was produced according to a previously reported protocol. KPC-2 and NDM-1 […] were purchased from LifeSpan Biosciences, Inc. (Lynnwood, WA, USA) (LS-G26598) and RayBiotech, Inc. (Peachtree Corners, GA, USA) (230-00554), respectively. Genes encoding OXA-48 (residues 23–265) and VIM-2 (residues 27–266) were custom-synthesized (Bioneer Inc., Seoul, Republic of Korea) and expressed as previously described. The β-lactamase inhibitory activity of the title compounds was then determined according to the previously reported methods. Briefly, equal volumes (100 μL) of the title compounds (70–0.1 μM in PBS) and diluted enzyme stock were mixed (final concentration 2% of DMSO in 200 μL) in 96-well plates, which were then incubated at 37 °C for 20 min. The incubated mixture was added to each well containing substrates (nitrocefin for AmpC, KPC-2, OXA-48, and VIM-2; and imipenem for NDM-1) of final concentrations of 70 μM for nitrocefin and 100 μM for imipenem. Substrate hydrolysis was monitored at 486 nm (nitrocefin) or 300 nm (imipenem) for 15 min, using a Cytation 5 imaging multimode reader (BioTek Instruments Inc., Winooski, VT, USA). At the plateau level of hydrolysis, the corresponding rates of hydrolysis were compared to those obtained without inhibitors (100%) to determine the percentage of enzyme inhibition at each concentration of the title compounds. The IC50 values of the compounds were derived from sigmoidal dose–response curves, using GraphPad Prism 5 (GraphPad Software, Boston, MA, USA).
# KPC-2 = target: T2, KPC-2 (Klebsiella pneumoniae, UniProt Q9F663); test: β-lactamase inhibition, nitrocefin hydrolysis; assay type: biochemical; conditions: nitrocefin substrate; read-out: β-Lactamases, IC50 KPC-2
# T2 construct: purchased LifeSpan Biosciences, Inc. LS-G26598
# T2 sequence (Q9F663 25-293, looked up): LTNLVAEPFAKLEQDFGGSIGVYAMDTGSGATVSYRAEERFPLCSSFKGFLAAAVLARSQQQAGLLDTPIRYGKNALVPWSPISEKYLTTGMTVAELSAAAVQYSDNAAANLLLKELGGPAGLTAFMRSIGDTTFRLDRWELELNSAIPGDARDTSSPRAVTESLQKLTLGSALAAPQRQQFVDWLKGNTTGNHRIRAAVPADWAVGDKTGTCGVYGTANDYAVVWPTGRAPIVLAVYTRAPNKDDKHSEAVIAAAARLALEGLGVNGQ
# Description: as §1
# OXA-48 = target: T3, OXA-48 (Klebsiella pneumoniae, UniProt Q6XEC0); test: β-lactamase inhibition, nitrocefin hydrolysis; assay type: biochemical; conditions: nitrocefin substrate; read-out: β-Lactamases, IC50 OXA-48
# T3 construct: Genes encoding OXA-48 (residues 23–265) and VIM-2 (residues 27–266) were custom-synthesized; made in house
# T3 sequence (Q6XEC0 23-265 limits assumed): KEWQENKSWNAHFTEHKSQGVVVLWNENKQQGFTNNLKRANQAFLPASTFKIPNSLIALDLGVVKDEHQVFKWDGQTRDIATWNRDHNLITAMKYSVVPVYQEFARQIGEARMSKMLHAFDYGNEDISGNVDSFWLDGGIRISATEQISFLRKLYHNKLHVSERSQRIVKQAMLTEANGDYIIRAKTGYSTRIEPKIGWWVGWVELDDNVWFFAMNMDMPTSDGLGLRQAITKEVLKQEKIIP
# Description: as §1
# VIM-2 = target: T4, VIM-2 (Escherichia coli, UniProt Q5U7L7); test: β-lactamase inhibition, nitrocefin hydrolysis; assay type: biochemical; conditions: nitrocefin substrate; read-out: β-Lactamases, IC50 VIM-2
# T4 construct: Genes encoding OXA-48 (residues 23–265) and VIM-2 (residues 27–266) were custom-synthesized; made in house
# Description: as §1
# AmpC = target: T5, AmpC (Escherichia coli, UniProt P00811); test: β-lactamase inhibition, nitrocefin hydrolysis; assay type: biochemical
# T5 construct: made in house
# T5 sequence (P00811 20-377): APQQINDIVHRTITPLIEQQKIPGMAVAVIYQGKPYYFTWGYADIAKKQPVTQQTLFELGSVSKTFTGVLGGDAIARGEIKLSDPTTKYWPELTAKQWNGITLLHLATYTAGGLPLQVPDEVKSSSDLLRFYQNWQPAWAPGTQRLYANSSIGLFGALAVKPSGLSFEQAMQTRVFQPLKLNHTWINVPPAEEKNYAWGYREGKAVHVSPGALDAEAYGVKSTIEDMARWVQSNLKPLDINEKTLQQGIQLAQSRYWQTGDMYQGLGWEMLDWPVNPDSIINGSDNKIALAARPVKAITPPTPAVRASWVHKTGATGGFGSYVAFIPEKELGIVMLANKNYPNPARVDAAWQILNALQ
# Description: as §1
# [1] = test system: MBL-producing P. aeruginosa clinical isolates; test: MIC by broth microdilution (CLSI); assay type: cell-based, Pseudomonas aeruginosa; conditions: Pseudomonas aeruginosa
# Procedure: The DMSO stock solutions of the test compounds were serially diluted to the desired concentrations in CAMHB. Then, 10 μL of the bacterial suspension (5 × 10^5 colony forming units (CFU)/mL) was combined with 200 μL of DMSO stock solutions of the test compounds in 96-well microtiter plates (1% DMSO, final). After the incubation of the plate at 37 °C for 24 h, bacterial growth was visibly evaluated by monitoring the turbidity of the resulting suspension, and the MICs were determined as the lowest concentrations of the test compounds that inhibited the visible growth of the bacteria.
# T1 sequence (C7C422 29-270, looked up, species assumed): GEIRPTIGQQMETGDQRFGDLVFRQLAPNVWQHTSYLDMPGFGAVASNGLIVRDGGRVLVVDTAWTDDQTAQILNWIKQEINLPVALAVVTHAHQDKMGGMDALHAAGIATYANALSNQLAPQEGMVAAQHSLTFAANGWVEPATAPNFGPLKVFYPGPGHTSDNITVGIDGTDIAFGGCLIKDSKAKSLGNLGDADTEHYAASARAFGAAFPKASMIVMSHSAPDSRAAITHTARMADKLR
Compound,"MIC ([1]; PA-001, blaNDM)","MIC ([1]; PA-002, blaIMP)","MIC ([1]; PA-007, blaNDM)","MIC ([1]; PA-008, blaNDM)","MIC ([1]; PA-011, blaNDM)","MIC ([1]; PA-012, blaNDM)","MIC ([1]; PA-016, blaIMP)","MIC ([1]; PA-017, blaNDM)","MIC ([1]; PA-019, blaNDM)","MIC ([1]; PA-020, blaNDM)","MIC ([1]; PA-023, blaNDM)","MIC ([1]; PA-025, blaNDM)","MIC ([1]; PA-027, blaIMP)","MIC ([1]; PA-028, blaNDM)","MIC ([1]; PA-029, blaIMP)","MIC ([1]; PA-030, blaIMP)","MIC ([1]; PA-034, blaNDM)","MIC ([1]; PA-036, blaNDM)","MIC ([1]; PA-038, blaNDM)","MIC ([1]; PA-039, blaNDM)",other results
CC(C)c1ccc(COc2c(-c3ccc(F)c(F)c3)oc3cc(O)cc(O)c3c2=O)cc1 [Compound 7],,,,,,,,,,,,,,,,,,,,,IC50 (NDM-1): 16.7 µM; IC50 (KPC-2): 21.5 µM; IC50 (OXA-48): 6 µM; IC50 (VIM-2): 13.1 µM; IC50 (AmpC): > 50 µM
CN1CCCC1CCOc1c(-c2ccc(F)c(F)c2)oc2cc(O)cc(O)c2c1=O (centres unmarked) [Compound 21],,,,,,,,,,,,,,,,,,,,,IC50 (NDM-1): > 50 µM; IC50 (KPC-2): > 50 µM; IC50 (OXA-48): > 100 µM; IC50 (VIM-2): > 100 µM; IC50 (AmpC): > 50 µM
O=c1c(OCCN2CCCCC2)c(-c2ccc(F)c(F)c2)oc2cc(O)cc(O)c12 [Compound 19],,,,,,,,,,,,,,,,,,,,,IC50 (NDM-1): > 50 µM; IC50 (KPC-2): > 50 µM; IC50 (OXA-48): > 100 µM; IC50 (VIM-2): > 100 µM; IC50 (AmpC): > 50 µM
O=c1c(OCCN2CCNCC2)c(-c2ccc(F)c(F)c2)oc2cc(O)cc(O)c12 [Compound 17],,,,,,,,,,,,,,,,,,,,,IC50 (NDM-1): > 50 µM; IC50 (KPC-2): > 50 µM; IC50 (OXA-48): > 100 µM; IC50 (VIM-2): > 100 µM; IC50 (AmpC): > 50 µM
"CNC(C)C1CCC(N)C(OC2C(N)CC(N)C(OC3OCC(C)(O)C(NC)C3O)C2O)O1 (centres unmarked) [GEN, gentamicin]",> 8 µg/mL,> 8 µg/mL,> 8 µg/mL,> 8 µg/mL,> 8 µg/mL,8 µg/mL,> 8 µg/mL,> 8 µg/mL,> 8 µg/mL,> 8 µg/mL,> 8 µg/mL,> 8 µg/mL,> 8 µg/mL,> 8 µg/mL,> 8 µg/mL,> 8 µg/mL,> 8 µg/mL,> 8 µg/mL,> 8 µg/mL,≤ 2 µg/mL,"MIC ([1]; PA-044, blaNDM): > 8 µg/mL"
"CO/N=C(\C(=O)N[C@@H]1C(=O)N2C(C(=O)[O-])=C(C[N+]3(C)CCCC3)CS[C@H]12)c1csc(N)n1 [FEP, cefepime]",> 16 µg/mL,> 16 µg/mL,16 µg/mL,> 16 µg/mL,> 16 µg/mL,> 16 µg/mL,> 16 µg/mL,> 16 µg/mL,> 16 µg/mL,16 µg/mL,> 16 µg/mL,> 16 µg/mL,> 16 µg/mL,> 16 µg/mL,> 16 µg/mL,> 16 µg/mL,> 16 µg/mL,> 16 µg/mL,> 16 µg/mL,> 16 µg/mL,"MIC ([1]; PA-044, blaNDM): > 16 µg/mL"
"C[C@@H](O)[C@H]1C(=O)N2C(C(=O)O)=C(SCCN=CN)C[C@H]12 [IPM, imipenem]",> 8 µg/mL,> 8 µg/mL,> 8 µg/mL,> 8 µg/mL,> 8 µg/mL,> 8 µg/mL,> 8 µg/mL,> 8 µg/mL,> 8 µg/mL,> 8 µg/mL,> 8 µg/mL,> 8 µg/mL,> 8 µg/mL,> 8 µg/mL,> 8 µg/mL,> 8 µg/mL,> 8 µg/mL,> 8 µg/mL,> 8 µg/mL,> 8 µg/mL,"MIC ([1]; PA-044, blaNDM): > 8 µg/mL"
"NCC[C@H](O)C(=O)N[C@@H]1C[C@H](N)[C@@H](O[C@H]2O[C@H](CN)[C@@H](O)[C@H](O)[C@H]2O)[C@H](O)[C@H]1O[C@H]1O[C@H](CO)[C@@H](O)[C@H](N)[C@H]1O [AMK, amikacin]",> 32 µg/mL,> 32 µg/mL,> 32 µg/mL,> 32 µg/mL,> 32 µg/mL,≤ 4 µg/mL,> 32 µg/mL,> 32 µg/mL,> 32 µg/mL,> 32 µg/mL,> 32 µg/mL,> 32 µg/mL,> 32 µg/mL,> 32 µg/mL,> 32 µg/mL,> 32 µg/mL,> 32 µg/mL,> 32 µg/mL,> 32 µg/mL,≤ 4 µg/mL,"MIC ([1]; PA-044, blaNDM): > 32 µg/mL"
"CC(C)(O/N=C(\C(=O)N[C@@H]1C(=O)N2C(C(=O)[O-])=C(C[n+]3ccccc3)CS[C@H]12)c1csc(N)n1)C(=O)O [CAZ, ceftazidime]",> 16 µg/mL,> 16 µg/mL,> 16 µg/mL,> 16 µg/mL,> 16 µg/mL,> 16 µg/mL,> 16 µg/mL,> 16 µg/mL,> 16 µg/mL,> 16 µg/mL,> 16 µg/mL,> 16 µg/mL,> 16 µg/mL,> 16 µg/mL,> 16 µg/mL,> 16 µg/mL,> 16 µg/mL,> 16 µg/mL,> 16 µg/mL,> 16 µg/mL,"MIC ([1]; PA-044, blaNDM): > 16 µg/mL"

# Reference: paper PMC10892423 (Pharmaceutics, 2024)
